Test results taken from US20180251431A1 (VERTEX PHARMACEUTICALS INCORPORATED, priority 2016, published 2018).
Where two headings read alike, the source gives them in different places.

Test system: HEK293 cells
Experiment: HEK293 VLCFA-LPC IC50 determination (13C-labeled C26:0 LPC by UHPLC/MS)
Type: cell-based, human
Settings: Homo sapiens, average of one or more replicates, read-out: Average HEK293 IC50
Method in brief: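 Suspension HEK293 cells (final 0.5 million/mL after mixing with equal volume) incubated 48 hours with compound plus 13C-acetate (1.0 mg/mL in added media), shaking at 37° C. Lipids extracted with hexane/isopropanol or methanol, C13:0 LPC standard. UHPLC/MS of 13C-labeled C26:0 LPC (638.500/104.100 m/z); IC50 by four-parameter fit.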

[1] = HEK293, 48 h, 13C-labeled C26:0 LPC, 48 hours

Row | Structure (SMILES) | IC50 [1] | IC50 (HEK293, HEK293 cells)
1 | Cc1csc(-n2ccc(NC(=O)C3(c4ccccc4F)CC3)n2)n1 [Compound 374, 1-(2-fluorophenyl)-N-(1-(4-methylthiazol-2-yl)-1H-pyrazol-3-yl)cyclopropane-1-carboxamide] | 470 nM | 
2 | COc1cccc(C2(C(=O)Nc3ccn(-c4ccnc(F)c4)n3)CC2)c1 [Compound 250, N-[1-(2-fluoro-4-pyridyl)pyrazol-3-yl]-1-(3-methoxyphenyl)cyclopropanecarboxamide] |  | 170 nM
3 | CC[C@@H](C(=O)Nc1ccn(-c2ccccc2)n1)c1ccccc1 [Compound 28, (2R)-2-phenyl-N-(1-phenylpyrazol-3-yl)butanamide] |  | 580 nM
4 | COc1cc(-n2ccc(NC(=O)C3(c4ccccc4F)CC3)n2)ncn1 [Compound 358, 1-(2-fluorophenyl)-N-(1-(6-methoxypyrimidin-4-yl)-1H-pyrazol-3-yl)cyclopropane-1-carboxamide] | > 5000 nM | 
5 | O=C(Nc1ccn(-c2ccsn2)n1)C1(c2ccccc2F)CC1 [Compound 402, 1-(2-fluorophenyl)-N-(1-isothiazol-3-ylpyrazol-3-yl)cyclopropanecarboxamide] | 60 nM | 
6 | COc1ncc(-n2ccc(NC(=O)C3(c4ncccc4F)CC3(C)C)n2)cc1F (stereo not shown) [Compound 517, N-[1-(5-fluoro-6-methoxy-3-pyridyl)pyrazol-3-yl]-1-(3-fluoro-2-pyridyl)-2,2-dimethyl-cyclopropanecarboxamide] |  | 1100 nM
7 | Cc1ccc(-n2ccc(NC(=O)C3(c4ccccc4)CC3)n2)cn1 [Compound 118, N-(1-(6-methylpyridin-3-yl)-1H-pyrazol-3-yl)-1-phenylcyclopropane-1-carboxamide] |  | 1300 nM
8 | O=C(Nc1ccn(-c2ccnc(F)c2)n1)C1(c2ccccc2)CC1 [Compound 237, N-[1-(2-fluoro-4-pyridyl)pyrazol-3-yl]-1-phenyl-cyclopropanecarboxamide] |  | 22 nM
9 | O=C(Nc1ccn(-c2ccncn2)n1)C1(c2ccccc2F)CC1 [Compound 206, 1-(2-fluorophenyl)-N-(1-pyrimidin-4-ylpyrazol-3-yl)cyclopropanecarboxamide] |  | 34 nM
10 | O=C(Nc1ccn(-c2ccnc(C(F)(F)F)c2)n1)C1(c2ccccc2F)CC1 [Compound 324, 1-(2-fluorophenyl)-N-(1-(2-(trifluoromethyl)pyridin-4-yl)-1H-pyrazol-3-yl)cyclopropane-1-carboxamide] | > 5000 nM | 
11 | CCC1(C)CC1(C(=O)Nc1ccn(-c2ccnc(F)c2)n1)c1ccccc1 (stereo not shown) [Compound 168, 2-ethyl-N-[1-(2-fluoro-4-pyridyl)pyrazol-3-yl]-2-methyl-1-phenyl-cyclopropanecarboxamide] |  | 86 nM
12 | O=C(Nc1ccn(-c2ccc(F)c(F)c2)n1)C1(c2ccccc2)CC1 [Compound 192, N-[1-(3,4-difluorophenyl)pyrazol-3-yl]-1-phenyl-cyclopropanecarboxamide] |  | 600 nM
13 | O=C(Cc1ccccc1)Nc1ccn(-c2ccncn2)n1 [Compound 209, 2-phenyl-N-(1-pyrimidin-4-ylpyrazol-3-yl)acetamide] |  | 2300 nM
14 | O=C(Nc1ccn(-c2ccccc2)n1)C1(c2ccccc2)CCC1 [Compound 35, 1-phenyl-N-(1-phenylpyrazol-3-yl)cyclobutanecarboxamide] |  | 330 nM
15 | O=C(Cc1ccccc1)Nc1ccn(-c2ccc(Cl)nc2)n1 [Compound 103, N-[1-(6-chloro-3-pyridyl)pyrazol-3-yl]-2-phenyl-acetamide] |  | 580 nM
16 | O=C(Nc1ccn(-c2cncc(OC(F)F)c2)n1)C1(c2ccc(F)cn2)CC1 [Compound 490, N-[1-[5-(difluoromethoxy)-3-pyridyl]pyrazol-3-yl]-1-(5-fluoro-2-pyridyl)cyclopropanecarboxamide] |  | > 5000 nM
17 | COc1ncncc1-n1ccc(NC(=O)C2(c3ccccc3F)CC2)n1 [Compound 353, 1-(2-fluorophenyl)-N-[1-(4-methoxypyrimidin-5-yl)pyrazol-3-yl]cyclopropanecarboxamide] | 2200 nM | 
18 | O=C(Nc1ccn(-c2ccc(C(F)F)nc2)n1)C1(c2ccccc2F)CC1 [Compound 397, N-[1-[6-(difluoromethyl)-3-pyridyl]pyrazol-3-yl]-1-(2-fluorophenyl)cyclopropanecarboxamide] |  | > 5000 nM
19 | Cc1ccc(CC(=O)Nc2ccn(-c3ccccc3)n2)cc1 [Compound 42, N-(1-phenylpyrazol-3-yl)-2-(p-tolyl)acetamide] |  | 710 nM
20 | O=C(Nc1ccn(-c2ccccc2)n1)C1(c2ccccc2)COC1 [Compound 144, 3-phenyl-N-(1-phenylpyrazol-3-yl)oxetane-3-carboxamide] |  | 260 nM
21 | CCOc1ccc(C2(C(=O)Nc3ccn(-c4ccnc(F)c4)n3)CC2)cc1 [Compound 246, 1-(4-ethoxyphenyl)-N-[1-(2-fluoro-4-pyridyl)pyrazol-3-yl]cyclopropanecarboxamide] |  | 2800 nM
22 | O=C(Nc1ccn(-c2ccc(Cl)nc2)n1)C1(c2ccccc2)CC1 [Compound 106, N-[1-(6-chloro-3-pyridyl)pyrazol-3-yl]-1-phenyl-cyclopropanecarboxamide] |  | 250 nM

Row | Structure (SMILES) | IC50 [1] | IC50 (HEK293, HEK293 cells)
23 | Cn1ncnc1-n1ccc(NC(=O)C2(c3ccccc3F)CC2)n1 [Compound 415, 1-(2-fluorophenyl)-N-[1-(2-methyl-1,2,4-triazol-3-yl)pyrazol-3-yl]cyclopropanecarboxamide] |  | 90 nM
24 | O=C(Cc1ccccc1F)Nc1ccn(-c2ccnc(F)c2)n1 [Compound 203, 2-(2-fluorophenyl)-N-[1-(2-fluoro-4-pyridyl)pyrazol-3-yl]acetamide] |  | 100 nM
25 | O=C(Nc1ccn(-c2cnns2)n1)C1(c2ccccc2F)CC1 [Compound 388, 1-(2-fluorophenyl)-N-[1-(thiadiazol-5-yl)pyrazol-3-yl]cyclopropanecarboxamide] | 37 nM | 
26 | O=C(Nc1ccn(-c2cncc(Cl)c2)n1)C1(c2ncccn2)CC1 [Compound 530, N-[1-(5-chloro-3-pyridyl)pyrazol-3-yl]-1-pyrimidin-2-yl-cyclopropanecarboxamide] |  | > 5000 nM
27 | O=C(Nc1ccn(-c2ccccc2)n1)C1(c2ccc(Cl)cc2F)CC1 [Compound 263, 1-(4-chloro-2-fluoro-phenyl)-N-(1-phenylpyrazol-3-yl)cyclopropanecarboxamide] |  | > 5000 nM
28 | N#Cc1cc(-n2ccc(NC(=O)C3(c4ccccc4F)CC3)n2)ccn1 [Compound 329, N-[1-(2-cyano-4-pyridyl)pyrazol-3-yl]-1-(2-fluorophenyl)cyclopropanecarboxamide] | 3600 nM | 
29 | CN(C(=O)C1(c2ccccc2F)CC1)c1ccn(-c2ccnc(F)c2)n1 [Compound 363, 1-(2-fluorophenyl)-N-(1-(2-fluoropyridin-4-yl)-1H-pyrazol-3-yl)-N-methylcyclopropane-1-carboxamide] | > 5000 nM | 
30 | O=C(Nc1ccn(-c2ccncc2)n1)C1(c2ccccc2)CC1(F)F (racemic) [Compound 419, 2,2-difluoro-1-phenyl-N-(1-(pyridin-4-yl)-1H-pyrazol-3-yl)cyclopropane-1-carboxamide] |  | 240 nM
31 | O=C(Cc1ccccc1F)Nc1ccn(-c2ccc(Cl)nc2)n1 [Compound 104, N-[1-(6-chloro-3-pyridyl)pyrazol-3-yl]-2-(2-fluorophenyl)acetamide] |  | 320 nM
32 | CC1(C)CC1(C(=O)Nc1ccn(-c2ccccc2)n1)c1ccccc1F (stereo not shown) [Compound 135, 1-(2-fluorophenyl)-2,2-dimethyl-N-(1-phenylpyrazol-3-yl)cyclopropanecarboxamide] |  | 680 nM
33 | O=C(Nc1ccn(-c2ccccn2)n1)C1(c2ccccc2)CC1 [Compound 212, 1-phenyl-N-[1-(2-pyridyl)pyrazol-3-yl]cyclopropanecarboxamide] |  | 190 nM
34 | COc1cccc(-n2ccc(NC(=O)C3(c4ccccc4F)CC3)n2)n1 [Compound 502, 1-(2-fluorophenyl)-N-[1-(6-methoxy-2-pyridyl)pyrazol-3-yl]cyclopropanecarboxamide] |  | > 5000 nM
35 | O=C(Cc1cc(F)cc(F)c1)Nc1ccn(-c2ccccc2)n1 [Compound 58, 2-(3,5-difluorophenyl)-N-(1-phenylpyrazol-3-yl)acetamide] |  | > 5000 nM
36 | O=C(Nc1ccn(-c2cncc(F)c2)n1)C1(c2ncccc2F)CC12CC2 (racemic) [Compound 473, 1-(3-fluoropyridin-2-yl)-N-(1-(5-fluoropyridin-3-yl)-1H-pyrazol-3-yl)spiro[2.2]pentane-1-carboxamide] |  | 430 nM
37 | O=C(Cn1nccn1)Nc1ccn(-c2ccccc2)n1 [Compound 298, N-(1-phenylpyrazol-3-yl)-2-(triazol-2-yl)acetamide] |  | > 2000 nM
38 | O=C(Cc1ccccc1F)Nc1ccn(-c2nccs2)n1 [Compound 90, 2-(2-fluorophenyl)-N-(1-thiazol-2-ylpyrazol-3-yl)acetamide] |  | 350 nM
39 | O=C(Nc1ccn(-c2cccc(Cl)c2)n1)C1(c2ccccc2F)CC1 [Compound 128, N-[1-(3-chlorophenyl)pyrazol-3-yl]-1-(2-fluorophenyl)cyclopropanecarboxamide] |  | 230 nM
40 | COc1ccncc1-n1ccc(NC(=O)C2(c3ccccc3F)CC2)n1 [Compound 469, 1-(2-fluorophenyl)-N-[1-(4-methoxy-3-pyridyl)pyrazol-3-yl]cyclopropanecarboxamide] |  | > 2000 nM
41 | O=C(Nc1ccn(-c2cc(F)cc(F)c2)n1)C1(c2cccs2)CC1 [Compound 480, N-[1-(3,5-difluorophenyl)pyrazol-3-yl]-1-(2-thienyl)cyclopropanecarboxamide] |  | 230 nM
42 | O=C(Cc1ccccc1)Nc1ccn(-c2ccc(F)cc2)n1 [Compound 181, N-[1-(4-fluorophenyl)pyrazol-3-yl]-2-phenyl-acetamide] |  | 250 nM
43 | COc1ccc(CC(=O)Nc2ccn(-c3ccccc3)n2)cc1OC [Compound 66, 2-(3,4-dimethoxylphenyl)-N-(1-phenylpyrazol-3-yl)acetamide] |  | 2800 nM
